Assay results from patent US20080176870A1, “Heterobicyclic metalloprotease inhibitors” (priority 2006, published 2008).

Target: T1, catalytic domain of MMP-13 enzyme (Homo sapiens, UniProt P45452)
T1 construct: 10 μL of a 50 nM stock solution of catalytic domain of MMP-13 enzyme (produced by Alantos)
Assay: Assay for determining MMP-13 inhibition (fluorescent substrate)
Format: biochemical
Settings: Table 1, Summary of MMP-13 Activity for Compounds; read-out: MMP-13 Activity (IC50 MMP-13), Group
Protocol: Assay for Determining MMP-13 Inhibition
The typical assay for MMP-13 activity is carried out in assay buffer comprised of 50 mM Tris, pH 7.5, 150 mM NaCl, 5 mM CaCl2 and 0.05% Brij-35. Different concentrations of tested compounds are prepared in assay buffer in 50 μL aliquots. 10 μL of a 50 nM stock solution of catalytic domain of MMP-13 enzyme (produced by Alantos) is added to the compound solution. The mixture of enzyme and compound in assay buffer is thoroughly mixed and incubated for 10 min at room temperature. Upon the completion of incubation, the assay is started by addition of 40 μL of a 12.5 μM stock solution of MMP-13 fluorescent substrate (Calbiochem, Cat. No. 444235). The time-dependent increase in fluorescence is measured at the 320 nm excitation and 390 nm emission by automatic plate multireader. The IC50 values are calculated from the initial reaction rates.

SMILES | IC50 [nM]
O=C1COc2ccc(CNC(=O)c3cc(-c4nn[nH]n4)n4ncc(F)c4n3)cc2N1 [Example 141] | < 200
Cc1c(C(=O)O)ccc2c1CCC2NCc1cc(C(=O)NCc2ccc(F)c(F)c2)nc2ccnn12 (stereo not shown) [Example 29, 1-{[5-(3,4-difluoro-benzylcarbamoyl)-pyrazolo[1,5-a]pyrimidin-7-ylmethyl]-amino}-4-methyl-indan-5-carboxylic acid] | < 200
O=C1COc2ccc(CNC(=O)c3cc(C(F)(F)F)n4ncnc4n3)cc2N1 [Example 188] | 201 to 20000
CC(C)(C)c1noc(-c2cc(C(=O)NCc3ccc4c(c3)NC(=O)CO4)nc3c(F)cnn23)n1 [Example 163] | < 200
O=C(NCC12CCC(C(=O)O)(CC1)CC2)Nc1cc(C(=O)NCc2ccc(F)cc2)nc2ccnn12 [Example 208] | < 200
Cc1c(C(=O)O)ccc2c1CCC2N(CC(=O)O)Cc1cc(C(=O)NCc2ccc(F)c(F)c2)nc2ccnn12 (stereo not shown) [Example 32, 1-{carboxymethyl-[5-(3,4-difluoro-benzylcarbamoyl)-pyrazolo[1,5-a]pyrimidin-7-ylmethyl]-amino}-4-methyl-indan-5-carboxylic acid] | < 200
N#Cc1cc(C(=O)NCc2ccc3c(c2)NC(=O)CO3)nc2ncnn12 [Example 190] | 201 to 20000
O=C(NCc1ccc(F)cc1)c1cc(NC(=O)C23CCC(C(=O)O)(CC2)CC3)n2nccc2n1 [Example 209] | 201 to 20000

Further lines, results first:

IC50 [nM] | SMILES
201 to 20000 | Cc1c(C(=O)O)ccc2c1CC[C@@H]2NC(=O)c1cc(C(=O)NCc2ccc3c(c2)NC(=O)CO3)nc2ccccc12 [Example 211]
201 to 20000 | Nc1c(N2CCc3ccc(CNC(=O)c4cc(C(=O)O)n5ncnc5n4)cc3C2)c(=O)c1=O [Example 195]
< 200 | CC(C)(C)n1nnc(-c2cc(C(=O)NCc3ccc4c(c3)NC(=O)CO4)nc3ccnn23)n1 [Example 152]
201 to 20000 | Cc1cc(CNC(=O)c2cc(C(=O)O)n3nccc3n2)ccc1F [Example 193]
< 200 | O=C1COc2ccc(CNC(=O)c3cc(-c4nnn(Cc5ccc(C(=O)O)cc5)n4)n4nccc4n3)cc2N1 [Example 160]
